What all share (assay type): physicochemical
Series [1] can be described thus: Base-catalyzed degradation, HPLC purity. As to the method:
(§1) Degradation products for ketorolac tromethamine were generated under acidic and basic conditions for reference when evaluating HPLC chromatograms for purity. This ensures differentiation between degradants, impurities, and peaks which are both impurities and degradants. For the acid-catalyzed degradation, 4.92 mg of ketorolac tromethamine was added to a scintillation vial, followed by 10 mL of H2O, and the pH of the resulting colorless solution was adjusted to pH 1.60 with H3PO4. Aliquots of this solution were placed in capped amber HPLC vials in an 85° C. oven for the indicated amount of time, then analyzed by HPLC using the purity method outlined in Table 3. For the base catalyzed degradation, 4.92 mg of ketorolac tromethamine was added to a scintillation vial, followed by 10 mL of H2O, and the resulting colorless solution was adjusted to pH 12.09 with NaOH. Aliquots of this solution were placed in capped amber HPLC vials in an 85° C. oven for the indicated amount of time, then analyzed by HPLC using the purity method outlined in Table 3.

Series [2] can be described thus: Acid-catalyzed degradation, HPLC purity. As to the method: as §1
Series [3] in a line: Light Stability Study (ambient light), HPLC purity. As to the method:
The clear scintillation vial was capped and placed on the windowsill, exposing the solution to both ambient light and temperature conditions. Aliquots (500 μL) were removed at various time points and diluted with an equal volume of H2O in an amber HPLC vial. The diluted solution was then analyzed by HPLC for the purity of ketorolac tromethamine.

Series [4] is described as follows: Stability Study B in Baxter IntraVia bags, HPLC purity. Conditions: heat for extended periods of time. As to the method:
Once all materials were added to the volumetric flask, it was filled to the line with H2O. The flask was magnetically stirred if any undissolved material was present. The formulations were then purged with N2 for 5 minutes before the bag filling process began. The Baxter IntraVia bags were filled by mass (80 g±1 g) using a peristaltic pump to feed the solution into each bag. A 2-way valve were placed in the solution filling line for sterile filtration and to regulate flow, respectively. For each formulation, 24 bags were filled.
All bags were used in the stability study without exposure to autoclave (or simulated autoclave) conditions. All bags were pulled within 1 day time points of 0, 4, 7, 14, 28 and 42 days and allowed to equilibrate to room temperature before sampling. Sampling of the bags for HPLC analysis occurred using a 5 cc disposable syringe with 21 gauge needle through the drug injection port. Approximately 1.5 mL of each formulation was transferred to an amber HPLC vial and analyzed within 12 hours of sampling.
This study included 3 formulations at 3 different temperatures (40° C., 60° C., and 80° C.) with time points over 6 weeks. Stability Study A provided information to structure Stability Study B with respect to the ideal parameters. […] Table 8 details the measured purity by HPLC of formulations 7, 8, and 10.

Turning to `O=C(c1ccccc1)c1ccc2n1CCC2C(=O)O` (centres unmarked) [Ketorolac tromethamine], the “HPLC Purity” value came out at 99.66% in series [1] (pH 12.09, 85° C., 2.5 hours); 99.62% in series [1] (pH 12.09, 85° C., 4 hours); 99.28% in series [1] (pH 12.09, 85° C., 24 hours); 98.97% in series [1] (pH 12.09, 85° C., 40 hours); 99.67% in series [1] (pH 12.09 with NaOH, 85° C., 1.5 hours); 98.96% in series [2] (pH 1.60, 85° C., 2.5 hours). Further, the “HPLC Purity” value is listed as 98.92% in series [2] (pH 1.60, 85° C., 4 hours); 98.87% in series [2] (pH 1.60, 85° C., 24 hours); 98.08% in series [2] (pH 1.60, 85° C., 40 hours); 99.02% in series [2] (pH 1.60 with H3PO4, 85° C., 1.5 hours). The Purity is on record as 99.62% in series [3] (ambient light and temperature, clear vial, in H2O, 0 days); 99.62% in series [3] (ambient light, 1 day); 99.60% in series [3] (ambient light, 3 days); 99.61% in series [3] (ambient light, 5 days); 99.60% in series [3] (ambient light, 12 days); 97.03% in series [3] (ambient light, 41 days). In addition, the Purity is 96.24% in series [3] (ambient light, 48 days); 93.27% in series [3] (ambient light, 62 days); 90.50% in series [3] (ambient light, 76 days). In addition, the “stability upon exposure to heat” value in series [4] is “stable”.
